Measured values as given in article PMC12323867 (RSC Medicinal Chemistry, 2025).
Read-outs that look alike come from different tables or passages of the source. Values belong to the compound of their own block, whether it stands above or below them.

Columns and labels:
[1] = target: T1, LSD1-HDAC1-CoREST complex (Homo sapiens, UniProt O60341); assay: LSD1 HRP-coupled demethylase assay, SP2509/SP2577 analogues; format: biochemical
T1 construct: full length native LSD1 (UniProt ID: O60341); made in house; host or cells: HEK 293F cells (co-transfection, pcDNA3 vectors)
Experimental: The analogues synthesised were then tested for their ability to inhibit LSD1 using purified LSD1-HDAC1-CoREST complex (Fig. 2B). We used an established fluorescent read out horseradish peroxidase (HRP) assay to monitor LSD1 enzymatic activity in the CoREST complex[8] (see ESI ^† for full details).
(§1) 2. Supplementary Information: Biology
(§2) 2.1. LSD-HDAC1-CoREST expression and purification
(§3) Lysis Buffer (Buffer A) Wash Buffer (Buffer B)
(§4) • 50 mM Tris/Cl pH 7.5 • 50 mM Tris/Cl pH 7.5
(§5) • 50 mM Potassium Acetate • 50 mM Potassium Acetate […]
(§6) Cleavage Buffer (Buffer C) Gel Filtration Buffer (Buffer D)
(§7) • 50 mM Tris/Cl pH 7.5 Filtered at vacuum.
(§8) • 50 mM Potassium Acetate • 50 mM Tris/Cl pH 7.5
(§9) • 5 % v/v Glycerol • 50 mM Potassium Acetate
(§10) • 0.5 mM tris(2- • 0.5 mM TCEP carboxyethyl)phosphine (TCEP)
(§11) The CoREST ternary complex was comprised of full length native LSD1 (UniProt ID: O60341), full length HDAC1 (UniProt ID: Q13547) and N-terminally truncated RCOR1 (86-485aa) (UniProt ID:
(§12) Q9UKL0). Protein constructs were cloned into pcDNA3 vector. The RCOR1 constructs contained an N-terminal (His)10(Flag)3 tag followed by a Tev protease cleavage site. The constructs for ternary complex were co-transfected into suspension-grow HEK 293F cells (Thermofisher Scientific) with polyethylenimine (PEI) (Sigma) and harvested after 48 hours. This section of the procedure was carried out as described previously in literature.11,12
(§13) Cell pellets from 1.2 L culture were defrosted, and buffer A (30 mL) was added. The solution was sonicated (Soniprep 150) in an beaker of ice using a 9 mm probe at 10 ampules; operated with 10 […]
2.2. SP2509/SP2577 analogues LSD1 HRP-coupled demethylase assay protocol The commercial reagents for the assay were HRP and Amplex® Ultrared, which are available to purchase from ThermoFisher (31490) and Invitrogen (10737474), respectively. HRP was made up to 8 mg/mL stock solution in 1xPBS buffer, divided into 10 µL aliquots, snap-frozen in liquid nitrogen and stored at -80 °C. Amplex® Ultrared was made up to 10 mM solution in DMSO, divided into 20 µL aliquots and wrapped in foil, away from light and stored at -20 °C. For each assay experiment, CoREST complex was diluted to 500 nM in assay buffer (20 mM HEPES pH 7.5 and 50 mM NaCl).
HRP was defrosted by diluting each aliquot in 90 µL 1xPBS solution, making a 0.8 mg/mL solution.
Amplex® Ultrared was made up to 200 µM in assay buffer. HRP and Amplex® Ultrared were pre-mixed before addition to the plate. H3K4Me2 substrate (4 mM in deionised water) was diluted to 300 µM in assay buffer. All stocks were stored on ice during assay preparation.
The assay was carried out using a ‘black well’ 96 well plate (Corning no. 3915) in a reaction volume of 100 μL. The final concentrations in the assay were as follows: 50 nM CoREST complex, 10 μM Amplex® UltraRed, 0.04 mg/mL HRP and 15 μM H3K4Me2 peptide substrate. The final DMSO concentration in each well was 1.1 %. Three wells of each experiments were designated ‘background controls’ and contained 85 μL assay buffer, premixed Amplex® UltraRed and HRP (10 µL) and H3K4Me peptide substrate (300 μM, 5 µL).
A stock solution of inhibitor (1 -5 mM in DMSO) was subjected to an inhibitor dilution series, in Eppendorf tubes, in 100 % DMSO. Each new inhibitor stock (4 μL) was diluted in assay buffer (1 in 75) within a new Eppendorf set with assay buffer (20 mM HEPES pH 7.5 and 50 m M NaCl), ensuring the percentage of DMSO was consistent throughout the series. To each well of interest, Inhibitor in assay buffer (75 μL) was added, and CoREST complex (500 nM, 10 µL) was added thereafter. The plate was placed on a rocker and pre -incubated for 30 mins. To each well, premixed Amplex® UltraRed and HRP (10 µL) was added before H3K4Me 2 peptide substrate in assay buffer solution (300 μM, 5 µL) was added to the wall of the plate. The plate was covered in foil and spun down for one minute before being placed in the plate reader. The final percentage concentration of DMSO in […]

H3K4me2 in HCT116 cells = assay: Histone methylation H3K4me2 by western blot; format: cell-based, human; conditions: HCT116, 0.1–10 μM, 24 hours, H3K4me2 antibody
Experimental: We next screened 25–33 and SP2509 over a concentration range of 0.1–10 μM in HCT116 cells (obtained from ATCC, CCL-247) and determined LSD1 abundance after 24 hours with an antibody for LSD1 (Fig. S4 ^†). […] Using the same conditions, we also determined the effects of SP2509, 25, 27, 28, 30 and 31 on histone H3 lysine 4 dimethyl (H3K4me2) a validated substrate for LSD1 using a specific antibody for H3K4me2 (Fig. S4 ^†).
Compounds 39–41, 49, 52 and 54 were screened for LSD1 degradation in HCT116 cells using a specific antibody for LSD1. This was performed side-by-side with TCP. Compounds were tested at concentration ranges of 0.2–20 μM and LSD1 abundance was quantified at 24 hours (Fig. S5 ^†). 49, 52 and 54 were also evaluated at 48 and 72 hours. […] We also determined the effects of these compounds on the histone methyl marker H3K4me2 (Fig. S5 and S6 ^†).
2.5 Protocols for LSD1 degradation and histone methylation in HCT116 cells HCT116 human colon carcinoma cells were grown in Dulbecco’s Modified Eagle Medium (DMEM) supplemented with Fetal Bovine Serum (FBS, 10% final concentration) and 1x glutamine/penicillin/streptomycin. Cells were incubated at 37 °C and 5% CO2. Cells were treated with compounds (0.1-20 µM) with a final DMSO volume of 0.04%. DMSO (0.04%) treated and untreated (WT) cells were included as controls.
HCT116 cells were seeded into six well plates (400000 cells per well) and after requisite compound treatment time (24h, 48h, 72h) cells were harvested and either snap-frozen in liquid nitrogen or lysed in lysis buffer (50mM Tris-HCl, 150 mM NaCl, 0.5% NP-40, 0.5% Triton X-100 + protease inhibitor) on ice for 30 mins. This was centrifuged (15000 rpm, 4 °C, 15 mins) and the supernatant collected.
H2SO4 (0.4 M, equal volume) was added to the pellets for histone extraction and the tubes incubated overnight at 4 °C. Following this, the histone extract was centrifuged (15000 rpm, 4 °C, 15 mins) and the supernatant collected. Protein concentrations of whole cell extract were quantified via Bradford Assay using BIO-RAD Protein Assay Dye Reagent Concentrate.
Western blots were run on NuPAGE 4-12% Bis-Tris gels, with 30 µg of protein (whole cell extract) or an equivalent volume of histone extract loaded per lane, with all extracts dyed with 4x NuPAGE LDS Sample Buffer. PageRuler Plus Prestained Ladder was used as a reference. Gel electrophoresis was carried out at 140 V for 60-90 mins, following which the proteins were transferred onto nitrocellulose membrane at 30 V for 60 mins. Membranes were blocked in LI-COR Intercept Blocking Buffer overnight at RT on a roller, following which the membrane was probed with primary antibodies for 1 h at RT. The membrane was washed with PBS + 0.1% Tween (3 x 10 mins), then incubated with secondary antibodies for 50 mins at RT. The membrane was washed again (PBS Tween 2 x 10 mins, PBS 1 x 10 mins) following which the blot was visualised with the Odyssey Infrared Imaging System. Image processing and quantification was performed with ImageStudio Lite. […]
a-tubulin (mouse) – Sigma, t5168 (1:10000 dilution)

[2] = target: T2, HDAC1-CoREST-LSD1 complex (Homo sapiens, UniProt O60341); assay: LSD1 HRP-coupled demethylase assay, TCP analogues; format: biochemical; conditions: for LSD1 inhibition at 50 μM: single concentration 50 μM, compared to no compound treatment control
T2 construct: full length native LSD1 (UniProt ID: O60341); made in house; host or cells: HEK 293F cells (co-transfection, pcDNA3 vectors)
Experimental: We then evaluated LSD1 inhibition in the LSD1-HDAC1-CoREST complex using the established horseradish peroxidase (HRP) assay.[8]
as §1, §2, §3, §4, §5, §6, §7, §8, §9, §10, §11, §12, §13
Components and concentrations for the HRP-coupled demethylase assay […]
The assay components are shown at their final concentrations per well in the table above. CoREST complex (HDAC 1/RCOR1/LSD1) was added to the assay buffer alongside either DMSO or the relevant inhibitor at the desired concentration on black-walled 96 well plates. Alongside this was another control, with DMSO but no CoREST or inhibitor. Plates were spun to 3000 rpm between each addition of a reagent. Plates were incubated at 20 °C for 30 mins, following which HRP/Amplex Ultrared (1:1 mixture) and peptide was added. Plates were spun, then read on an PerkinElmer 2030 Explorer plate reader, with excitation of 530 nm and […] of 590 nm, with 7 readings taken over […]
Components, where bought in, are listed below:
HRP – Pierce™ Horseradish Peroxidase, Invitrogen
H3K4me2 peptide – Histone H3 dimethyl lysine-4 peptide, Enzo Life Sciences Amplex UltraRed, ThermoFisher Scientific
To the assay buffer was added HRP/AMP in each well to concentrations equal to those in above, following which hydrogen peroxide solution (diluted from 3% hydrogen peroxide solution into a 20 mM stock) was added, in a 1 in 3 dilution series with final concentrations starting from 3 mM.
Negative control wells contained either 100% buffer or as above with no hydrogen peroxide solution.

[3] = LSD1 enzymatic activity, complex 50 nM, HRP assay, SP2509 value is mean of three sets, read-out: LSD1-HDAC1-CoREST IC50
[4] = per parallel set, each set with SP2509 as reference standard, read-out: IC50 from dose response curves (Figure S1)

Compound: COc1ccc(O)c(C(C)=NNC(=O)c2cccc(S(=O)(=O)N3CCOCC3)c2)c1 [compound 8]
- IC50 [1, 3]: 14.5 nM
- IC50 [1, 4]: 15 nM

Compound: COc1ccc(O)c(C=NNC(=O)c2cccc(S(=O)(=O)N3CCOCC3)c2)c1 [compound 9]
- IC50 [1, 3]: 12.8 nM
- IC50 [1, 4]: 13 nM

Compound: COc1ccc(C(C)=NNC(=O)c2cccc(S(=O)(=O)N3CCOCC3)c2)c(O)c1 [compound 10]
- IC50 [1, 3]: 12.4 nM
- IC50 [1, 4]: 12 nM

Compound: CC(=NNC(=O)c1cccc(S(=O)(=O)N2CCN(C(=O)OC(C)(C)C)CC2)c1)c1cc(Cl)ccc1O [compound 11]
- IC50 ([1]; LSD1 enzymatic activity, complex 50 nM, HRP assay, read-out: LSD1-HDAC1-CoREST IC50): > 20000 nM

Compound: C/C(=N\NC(=O)c1cccc(S(=O)(=O)N2CCOCC2)c1)c1ccc(OCCOCCC(=O)OC(C)(C)C)cc1O [compound 12]
- IC50 [1, 3]: 113 nM

Compound: C/C(=N\NC(=O)c1cccc(S(=O)(=O)N2CCOCC2)c1)c1cc(OCCOCCC(=O)OC(C)(C)C)ccc1O [compound 13]
- IC50 [1, 3]: 159 nM

Compound: C/C(=N\NC(=O)c1cccc(S(=O)(=O)N2CCOCC2)c1)c1cc(OCCOCCC(=O)N[C@H](C(=O)N2C[C@H](O)C[C@H]2C(=O)NCc2ccc(-c3scnc3C)cc2)C(C)(C)C)ccc1O [compound 25]
- H3K4me2 abundance (H3K4me2 in HCT116 cells): no increase in H3K4me2

Compound: C/C(=N\NC(=O)c1cccc(S(=O)(=O)N2CCOCC2)c1)c1cc(OCCCC(=O)N[C@H](C(=O)N2C[C@H](O)C[C@H]2C(=O)NCc2ccc(-c3scnc3C)cc2)C(C)(C)C)ccc1O [compound 27]
- H3K4me2 abundance (H3K4me2 in HCT116 cells): no increase in H3K4me2

Compound: C/C(=N\NC(=O)c1cccc(S(=O)(=O)N2CCOCC2)c1)c1cc(OCCCCCCCC(=O)N[C@H](C(=O)N2C[C@H](O)C[C@H]2C(=O)NCc2ccc(-c3scnc3C)cc2)C(C)(C)C)ccc1O [compound 28]
- H3K4me2 abundance (H3K4me2 in HCT116 cells): no increase in H3K4me2

Compound: C/C(=N\NC(=O)c1cccc(S(=O)(=O)N2CCOCC2)c1)c1cc(OCCOCCC(=O)NCCNc2cccc3c2C(=O)N(C2CCC(=O)NC2=O)C3=O)ccc1O (centres unmarked) [compound 30]
- H3K4me2 abundance (H3K4me2 in HCT116 cells): no increase in H3K4me2

Compound: C/C(=N\NC(=O)c1cccc(S(=O)(=O)N2CCOCC2)c1)c1cc(OCCOCCOCCC(=O)NCCNc2cccc3c2C(=O)N(C2CCC(=O)NC2=O)C3=O)ccc1O (centres unmarked) [compound 31]
- H3K4me2 abundance (H3K4me2 in HCT116 cells): no increase in H3K4me2

Results, then the compound that gave them:

- IC50 [1, 3]: 20.6 nM
- IC50 [1, 4]: 21 nM
Compound: C/C(=N\NC(=O)c1cccc(S(=O)(=O)N2CCNCC2)c1)c1cc(Cl)ccc1O [compound 14]

- IC50 [1, 3]: 108 nM
Compound: C/C(=N\NC(=O)c1cccc(S(=O)(=O)N2CCN(CCOCCC(=O)OC(C)(C)C)CC2)c1)c1cc(Cl)ccc1O [compound 15]

- LSD1 inhibition at 50 μM ([2]; complex 50 nM): modest inhibition
Compound: Cc1ncsc1-c1ccc(CNC(=O)[C@@H]2C[C@@H](O)CN2C(=O)[C@@H](NC(=O)CCCCC(=O)NC2CC2c2ccccc2)C(C)(C)C)cc1 (some centres unmarked) [compound 38]

- LSD1 inhibition at 50 μM ([2]; complex 50 nM): not LSD1 inhibitors
Compound: Cc1ncsc1-c1ccc(CNC(=O)[C@@H]2C[C@@H](O)CN2C(=O)[C@@H](NC(=O)CCCCCCCCCCC(=O)NC2CC2c2ccccc2)C(C)(C)C)cc1 (some centres unmarked) [compound 39]

- LSD1 inhibition at 50 μM ([2]; complex 50 nM): not LSD1 inhibitors
Compound: O=C(CCCCC(=O)NC1CC1c1ccccc1)NCCNc1cccc2c1C(=O)N(C1CCC(=O)NC1=O)C2=O (centres unmarked) [compound 40]

- LSD1 inhibition at 50 μM ([2]; complex 50 nM): not LSD1 inhibitors
Compound: O=C(CCCCCCCCCCC(=O)NC1CC1c1ccccc1)NCCNc1cccc2c1C(=O)N(C1CCC(=O)NC1=O)C2=O (centres unmarked) [compound 41]

- IC50 ([2]; complex 50 nM, mean ± SD from three replicates): 94 nM
- enhancement in LSD1 inhibition compared to TCP ([2]; ratio of IC50 values): approximately 100 fold
Compound: COC(=O)c1ccc([C@@H]2C[C@H]2N)cc1 [compound 55]
